One substance from patent US20080226565A1, “Anticariogenic Proteins & Peptides & Saccharides” (priority 2004, published 2008) can be followed below.

This test concerns Streptococcus spp. The experiment in a line: Susceptibility (MIC), agar dilution, Streptococcus spp. It counts as cell-based. Conditions: 6 from 9 Streptococcus strains. The procedure:
The investigations included more than hundred strains isolated from the oral cavity: : anaerobes, microaerophilic bacteria, aerobes, Streptococcus spp. and yeast like fungi. The microorganisms were isolated from saliva, mucosal membrane, gingival pockets and caries decay. The susceptibility (MIC) of bacteria and yeastlike fungi were determined by means of plate dilution technique in agar.
The investigated samples were dissolved in sterile distilled water (immediately before the experiment) to obtain the following concentrations: 3.5, 1.7, 0.8, 0.4 and 0.2 mg/ml and were added into appropriate agar. The plates were inoculated using a Steers multipoint inoculator. Inoculum contained 10^6 CFU/spot. […]
Anaerobes. The susceptibility of bacteria was determined by means of the agar dilution methods with Brucella agar supplemented with 5% defibrinated sheep's blood, menadione and hemin. […] The susceptibility of bacteria was determined by means of the agar dilution methods with Brucella agar supplemented with 5% sheep's blood. […] The susceptibility of bacteria was determined by means of the agar dilution methods with Mueller-Hinton agar supplemented with 5% sheep's blood. […] The susceptibility to investigated samples was determined by means of the plate dilution technique in Mueller-Hinton agar. […]
In general terms: Agar dilution tests growth on a series of plates holding different concentrations.

“bisphosphonylated epsilon-polylysine [bisphosphonylated e-polylysine]”: the “concentration inhibiting growth (MIC)” value amounted to 1700 µg/mL.
